# Read-outs that look alike come from different tables or passages of the source.
# Legend:
# MES-SA/Dx5 cells = test: PrestoBlue viability assay, MES-SA/Dx5 cells (MDR, P-gp positive); details: for SR_TQ: selectivity ratio MES-SA vs MES-SA/Dx5, with TQ; for SR: selectivity ratio MES-SA vs MES-SA/Dx5, without TQ; for pIC50 value MES-SA/Dx5: MES-SA/Dx5 cells, without TQ
# MES-SA cells = test: PrestoBlue viability assay, MES-SA cells; details: for pIC50 value MES-SA: MES-SA cells, without TQ
# A431-B1 cells = test: PrestoBlue viability assay, A431-B1 (A431-ABCB1) cells; details: for SR (A431 / A431-B1): fraction of IC50 in P-gp negative vs positive cells
# A431 cells = test: PrestoBlue viability assay, A431 cells
# [1] = Homo sapiens, MES-SA/Dx5, 72 h, read-out: IC50 / μM MES-SA/Dx5, absence of TQ, 72 h incubation
# [2] = Homo sapiens, MES-SA/Dx5, read-out: IC50 / μM MES-SA/Dx5 (values in parentheses), presence of 1 μM P-gp inhibitor tariquidar (TQ)
# [3] = Homo sapiens, MES-SA/Dx5, read-out: pIC50 value MES-SA/Dx5 + TQ, MES-SA/Dx5 cells, with TQ (converted)
# [4] = Homo sapiens, MES-SA/Dx5, read-out: pIC50 value MES-SA/Dx5, MES-SA/Dx5 cells, without TQ (converted)
# [5] = Homo sapiens, MES-SA, 72 h, read-out: IC50 / μM MES-SA, absence of TQ, 72 h incubation
# [6] = Homo sapiens, MES-SA, read-out: IC50 / μM MES-SA (values in parentheses), presence of 1 μM P-gp inhibitor tariquidar (TQ)
# [7] = Homo sapiens, MES-SA, read-out: pIC50 value MES-SA+TQ, MES-SA cells, with TQ (converted)
# [8] = Homo sapiens, MES-SA, read-out: pIC50 value MES-SA, MES-SA cells, without TQ (converted)
# [9] = 72 h, read-out: IC50 / µM A431-B1, 72 h incubation
# [10] = read-out: IC50 / µM A431-B1, 72 h incubation
# [11] = read-out: pIC50 A431-B1, SARM figure (converted)
# [12] = Homo sapiens, A-431, 72 h, read-out: IC50 / µM A431, 72 h incubation
# [13] = Homo sapiens, A-431, read-out: pIC50 A431, SARM figure (converted)
# [14] = read-out: IC50 / µM A431, 72 h incubation
# [15] = read-out: IC50 / μM MES-SA/Dx5, absence of TQ, 72 h incubation
# [16] = read-out: IC50 / μM MES-SA, absence of TQ, 72 h incubation
SMILES,IC50 (MES-SA/Dx5 cells; [1]),IC50 (MES-SA/Dx5 cells; [2]),IC50 (MES-SA/Dx5 cells; [3]),IC50 (MES-SA/Dx5 cells; [4]),SR_TQ (MES-SA/Dx5 cells),SR (MES-SA/Dx5 cells),IC50 (MES-SA cells; [5]),IC50 (MES-SA cells; [6]),IC50 (MES-SA cells; [7]),IC50 (MES-SA cells; [8]),IC50 (A431-B1 cells; [9]),IC50 (A431-B1 cells; [11]),IC50 (A431 cells; [12]),IC50 (A431 cells; [13]),further results
CCN(CC)Cc1ccc2cccnc2c1O [Compound 1],1.64 ± 0.24 µM,3.04 µM,3.02 µM,1.62 µM,1.69,4.49,7.35 ± 1.28 µM,5.15 µM,5.13 µM,7.24 µM,4.51 ± 0.73 µM,5.01 µM,14.8 ± 0.41 µM,13.5 µM,IC50 (A431-B1 cells; [10]): 4.99 ± 0.52 µM; IC50 (A431 cells; [14]): 13.4 ± 0.18 µM
Oc1c(CN2CCCC2)ccc2cccnc12 [Compound 2],1.47 ± 0.25 µM,2.82 µM,2.82 µM,1.45 µM,1.41,3.16,4.64 ± 0.82 µM,3.98 µM,3.98 µM,4.57 µM,,3.16 µM,18.2 ± 1.02 µM,16.6 µM,IC50 (A431 cells; [14]): 17.1 ± 4.65 µM
CCN(CC)Cc1cc(Cl)c2cccnc2c1O [Compound 5],0.35 ± 0.06 µM,1.82 µM,1.82 µM,0.347 µM,1.78,8.44,2.97 ± 0.33 µM,3.25 µM,3.24 µM,2.95 µM,1.58 ± 1.11 µM,1.48 µM,9.29 ± 1.55 µM,9.33 µM,IC50 (A431-B1 cells; [10]): 1.52 ± 0.32 µM; IC50 (A431 cells; [14]): 10 ± 4.2 µM
OCCN(CCO)Cc1cc(Cl)c2cccnc2c1O [Compound 6],5.28 ± 1.28 µM,15.4 µM,,5.13 µM,1.64,5.91,31.2 ± 4.04 µM,25.3 µM,25.1 µM,30.9 µM,20.5 ± 0.95 µM,,73.6 ± 0.75 µM,,"SR (MES-SA_TQ / Dx5_TQ) (values in parentheses) (MES-SA/Dx5 cells; fraction of IC50 in P-gp negative vs positive cells, presence of 1 μM TQ): 1.64; SR (A431 / A431-B1) (A431-B1 cells): 3.60"
O=[N+]([O-])c1cc(CN(CCO)CCO)c(O)c2ncccc12 [Compound 7],4.33 ± 0.2 µM,,,4.37 µM,,1.49,6.46 ± 0.49 µM,,,6.46 µM,9.18 ± 0.58 µM,,9.79 ± 1.13 µM,,SR (A431 / A431-B1) (A431-B1 cells): 1.07
Oc1c(CN2CCOCC2)ccc2cccnc12 [Compound 8],4.33 ± 0.31 µM,,,4.27 µM,,1.75,7.55 ± 0.91 µM,,,7.41 µM,6.51 ± 0.65 µM,,14.5 ± 0.32 µM,,SR (A431 / A431-B1) (A431-B1 cells): 2.23
CCCCOCc1cc(CN2CCN(C)CC2)c(O)c2ncccc12 [Compound 10],2.12 ± 0.15 µM,3.92 µM,3.8 µM,2.14 µM,1.28,3.4,7.23 ± 0.14 µM,5 µM,5.01 µM,7.24 µM,4.57 ± 0.2 µM,4.57 µM,11.2 ± 0.37 µM,11.2 µM,IC50 (A431 cells; [14]): 11.2 ± 0.83 µM
CC(=O)Nc1cc(CN2CCCCC2)c(O)c2ncccc12 [Compound 11],19.4 ± 2.33 µM,,,19.1 µM,,0.64,12.4 ± 1.67 µM,,,12.3 µM,58.2 ± 0.65 µM,,> 100 µM,,
Oc1c(CN2CCCC2)cc(Cl)c2cccnc12 [Compound 15],0.3 ± 0.06 µM,3.21 µM,3.16 µM,0.295 µM,1.35,11.53,3.46 ± 0.51 µM,4.34 µM,4.27 µM,3.39 µM,1.97 ± 0.25 µM,1.95 µM,7.45 ± 0.15 µM,7.41 µM,
COCc1cc(CN2CCCC2)c(O)c2ncccc12 [Compound 17],1.37 ± 0.26 µM,3.59 ± 0.53 µM,3.55 µM,1.35 µM,2.92,8.09,11.1 ± 1.78 µM,10.5 ± 0.17 µM,10.5 µM,11 µM,4.05 ± 0.07 µM,4.07 µM,53.2 ± 6.49 µM,52.5 µM,
COCc1cc(CN2CCCCC2)c(O)c2ncccc12 [Compound 21],0.92 ± 0.11 µM,7.59 ± 0.08 µM,7.59 µM,0.912 µM,1.26,10.19,9.35 ± 0.61 µM,9.56 ± 0.39 µM,9.55 µM,9.33 µM,3.53 ± 0.14 µM,3.55 µM,22.6 ± 4.32 µM,22.4 µM,
Oc1c(C(c2cccnc2)N2CCCC2)ccc2cccnc12 (stereo not shown) [Compound 85],23.3 µM,,,23.4 µM,,1.76,41 µM,,,40.7 µM,,52.5 µM,,,
CN1CCN(C(c2cccs2)c2ccc3cccnc3c2O)CC1 (stereo not shown) [Compound 113],16.79 ± 0.08 µM,,,16.6 µM,,0.76,12.8 ± 1.72 µM,,,12.6 µM,,,,,
CCN1CCN(C(c2cccnc2)c2ccc3cccnc3c2O)CC1 (stereo not shown) [Compound 115],10.3 ± 3.54 µM,,22.9 µM,9.77 µM,1.05,1.99,20.6 ± 1.85 µM,,24 µM,20.4 µM,,,,,
CCN1CCN(C(c2cccs2)c2ccc3cccnc3c2O)CC1 (stereo not shown) [Compound 116],14.2 ± 1.36 µM,,,14.1 µM,,0.64,9.06 ± 0.23 µM,,,9.12 µM,,,,,
CCN1CCN(C(c2ccccn2)c2cc(Cl)c3cccnc3c2O)CC1 (stereo not shown) [Compound 117],24.4 ± 3.58 µM,,,24 µM,,1.16,28.3 ± 2.32 µM,,,28.2 µM,,,,,
CCN1CCN(C(c2cccnc2)c2cc(Cl)c3cccnc3c2O)CC1 (stereo not shown) [Compound 118],23.1 ± 4.67 µM,,,22.4 µM,,0.92,21.4 ± 0.84 µM,,,21.4 µM,,,,,
OCCN1CCN(C(c2ccccc2)c2ccc3cccnc3c2O)CC1 (stereo not shown) [Compound 119],,,,,1.7,1.53,,,,,,,,,pIC50 value MES-SA/Dx5 (MES-SA/Dx5 cells): 4.88; IC50 (MES-SA/Dx5 cells; [15]): 13.5 ± 2.55 µM; pIC50 value MES-SA (MES-SA cells): 4.69; IC50 (MES-SA cells; [16]): 20.7 ± 0.97 µM
Oc1c(C(c2ccccn2)N2CCN(c3ccccn3)CC2)ccc2cccnc12 (stereo not shown) [Compound 121],,,,,,1.81,,,,,,,,,pIC50 value MES-SA/Dx5 (MES-SA/Dx5 cells): 4.65; IC50 (MES-SA/Dx5 cells; [15]): 22.6 ± 2.85 µM; pIC50 value MES-SA (MES-SA cells): 4.39; IC50 (MES-SA cells; [16]): 40.9 ± 2.86 µM
